Measurements taken from patent US20230364032A1, “USE OF 2-HOBA TO TREAT ATHEROSCLEROSIS” (Vanderbilt University, priority 2020, published 2023).
“Also recorded” adds a separate entry of the source.

Columns and labels:
F2-IsoP = assay: Urine F2-isoprostane levels (LC/MS/MS); format: in vivo, mouse; details: Ldlr−/− mice, western diet 16 weeks, 1 g/L; vehicle, 4-HOBA, 2-HOBA compared
Protocol: The urine F2-IsoP levels were measured by LC/MS/MS) from Ldlr^−/− mice consuming a western diet for 16 weeks and treated with 1 g/L 2-HOBA, 4-HOBA, or vehicle. N=5 or 6 per group, p=0.43, Kruskal-Wallis test. Urinary creatinine levels were measured for normalization.

[1] = previous in vitro studies; cited from earlier work
IsoLG = assay: IsoLG-HOBA adducts/metabolites in liver and heart (LC/MS); format: in vivo, mouse; details: for IsoLG-HOBA adducts in hearts and livers: Ldlr−/− mice after 16 weeks on a western diet
Protocol: To generate an internal standard for quantitation, 10 molar equivalents of the heavy isotope labeled 2-HOBA, [^2H4]2-HOBA, was reacted with synthetic IsoLG^69 overnight in 1 mM triethylammonium acetate buffer to form IsoLG-2-HOBA adducts, and the adducts separated from unreacted [^2H4]2-HOBA and IsoLG by solid phase extraction (Oasis HLB). The isolated reaction products of IsoLG-2-HOBA were scanned by mass spectrometer (Waters Xevo-TQ-Smicro triple quadrupole MS) operating in limited mass scanning mode to identify major products. Additionally, precursor scanning with the product ion set at m/z 111.1 was used to confirm that the detected products were [^2H4]2-HOBA adducts. […] Similar species were seen when IsoLG was reacted with non-labeled 2-HOBA and precursor scanning using product ion m/z 107.1 To identify potential 2-HOBA adducts in tissue of treated animals, the present inventors first generated a list of 18 probable IsoLG-HOBA species [pyrrole, lactam, hydroxylactam based on the in vitro reactions of IsoLG and 2-HOBA and then the anhydro-, dinor-, dinor/anhydro-, tetranor-, and keto-(from oxidation of hydroxyl group) metabolites of each of these three adducts based on previous metabolism studies with prostaglandins and isoprostanes]. The present inventors then analyzed liver homogenate from a 2-HOBA treated mouse using LC/MS with the mass spectrometer operating in positive ion precursor scanning mode and the product ion set to m/z 107.1 and collision energy at 20 eV and looked for the presence of any of these precursor ions. […] M2 m/z 440.3, which mass is consistent with the pyrrole adduct, and M3 m/z 454.3 which mass is consistent with the anhydro-hydroxylactam adduct or the keto-lactam adduct. When then sought to quantify the amount of the putative IsoLG-HOBA adducts in heart and liver samples as there was not sufficient aorta sample remaining from other analysis available to do this analysis.
For these experiments, liver or heart samples from Ldlr^−/− mice treated with 2-HOBA or 4-HOBA were homogenized in 0.5 M Tris buffer solution pH 7.5 containing mixture of antioxidants (pyridoxamine, indomethacin, BHT, TCEP). Total amount of protein in homogenate was determined for normalization. 1 pmol IsoLG-[^2H4]2-HOBA was then added to each homogenate sample as internal standard, the HOBA adducts extracted with ethyl acetate, dried, dissolved in solvent 1 (water with 0.1% acetic acid) and analyzed by LC/MS using Waters Xevo-TQ-Smicro triple quadrupole mass spectrometer operating in positive ion multiple reaction monitoring (MRM) mode, monitoring the following transitions: m/z 438.3→107.1@20 eV for M1; m/z 440→107.1@20 eV for M2; m/z 454→107.1@20 eV for M3; and m/z 476.3→111.1@20 eV for IsoLG-[^2H4]2-HOBA hydroxylactam. Desolvati on temperature: 500° C.; source temperature: 150° C.; capillary voltage: 5 kV, cone voltage: 5 V; cone gas flow 1 L/h; desolvation gas flow 1000 L/h. HPLC condition were as follows: Solvent 1: water with 0.1% acetic acid; Solvent 2, methanol with 0.1% acetic acid; column: Phenomenex Kinetex C8 50×2.1 mm 2.6 u 100 Å, flow rate: 0.4 mL/min; gradient: starting condition 10% B with gradient ramp to 100% B over 3.5 min, hold for 0.5 min, and return to starting conditions over 0.5 min. Abundance for each metabolite was calculated based on the ratio of peak height versus that of internal standard.

[2] = Ldlr−/− mice, Western diet 16 weeks, continuously treated, Mean ± SEM

Compound | urine F2-IsoP levels (F2-IsoP) | reactivity with lipid dicarbonyls / dicarbonyl scavenging [1] | IsoLG-HOBA adducts in hearts and livers (IsoLG) | IsoLG-HOBA-M1 level, heart (IsoLG; [2]) | IsoLG-HOBA-M1 level, liver (IsoLG; [2]) | IsoLG-HOBA-M2 level, heart (IsoLG; [2]) | IsoLG-HOBA-M2 level, liver (IsoLG; [2]) | IsoLG-HOBA-M3 level, heart (IsoLG; [2]) | IsoLG-HOBA-M3 level, liver (IsoLG; [2])
NCc1ccc(O)cc1 [4-HOBA, 4-hydroxybenzylamine, reference compound] | not different | poor reactivity; also recorded: ineffective | nondetectable | – | – | – | – | – | –
NCc1ccccc1O [2-HOBA, 2-hydroxybenzylamine] | not significantly different; also recorded: does not impact | rapidly reacts | present | 0.74 ± 0.21 nmol/kg | 0.88 ± 0.14 nmol/kg | 0.57 ± 0.35 nmol/kg | 0.82 ± 0.12 nmol/kg | 0.24 ± 0.17 nmol/kg | 4.17 ± 1.85 nmol/kg
